Experimental data published in paper PMC9841525, “Chemical Blockage of the Mitochondrial Rhomboid Protease PARL by Novel Ketoamide Inhibitors Reveals Its Role in PINK1/Parkin-Dependent Mitophagy” (Journal of Medicinal Chemistry, 2022).
“Also recorded” adds a separate entry of the source. *1 amine or outer side, *2 acyl side, *3 side chain or, on linkers, in order; H or OH if unused. Where a SMILES comes first, the peptide text is derived from it. [ ]: non-standard residue; d: D form. The star is where a group is joined. NH(4-phenylbutyl) = c1ccc(CCCCN*)cc1; X1 = C[C@H](N[*:1])C(=O)C(=O)[*:2]

Legend:
[1] = tested on: PINK1; assay: PINK1 processing in HEK293 T-REx cells overexpressing PINK1, immunoblot; format: cell-based, human; settings: HEK293 T-REx cells overexpressing PINK1, 8 h
Description: Inducible stable Flp-In HEK293 T-REx cells expressing PINK1 were described previously.[33] HEK293 T-REx PINK1 and HEK293T cells were grown in DMEM (Gibco) supplemented with 10% (v/v) fetal bovine serum (ThermoFisher), 1% (v/v) GlutaMAX (Gibco), 1% (v/v) sodium pyruvate (Gibco), 125 μg/mL hygromycin (Invitrogen), and 10 μg/mL blasticidin (Gibco) or DMEM supplemented with 10% (v/v) fetal bovine serum, respectively, at 37 °C in 5% (v/v) CO2. For microscopy, cells were seeded on poly-L-lysine (Sigma)-coated slides. Transient plasmid transfections were performed using 25 kDa linear polyethylenimine (Polysciences). Plasmid (100 ng) encoding HA-Parkin-IRES-GFP, mito-mCherry or Parkin-mEGFP, or 500 ng plasmid encoding PGAM5-FLAG were used per 6-well. Total transfected DNA was 2 μg/well. For siRNA transfection, 2 × 10^5 cells were seeded per 6-well and on the next day transfected with 20 nM siRNA-oligonucleotide using lipofectamine RNAiMAX (ThermoFisher). Cells were analyzed 27 h post-transfection or five days post-siRNA-transfection. HEK293 T-REx PINK1 cells were induced with 0.3 μg/mL doxycycline for 24 h before further processing. […] For quantification, ImageJ was used (http://rsb.info.nih.gov/ij/). Immunoblots shown are representative of at least three independent experiments and were evaluated using Excel and GraphPad Prism 9 (GraphPad Software, Inc.).

[2] = tested on: HEK293T cells; assay: JC-1 mitochondrial membrane potential assay; format: cell-based, human; settings: 5 µM compound 5 or CCCP, at least three hours, compared to DMSO
Description: Staining of cells for the determination of mitochondrial membrane potential was carried out with the JC-1 mitochondrial staining kit (Sigma-Aldrich) according to the kit’s instructions; stained cells were immediately taken to live cell imaging.
For fixation, cells were incubated for 15 min with 4% formaldehyde (16% formaldehyde diluted in PBS, Thermo Scientific) and washed in PBS. The cover glasses were mounted with Fluoromount-G (Southern Biotech) on microscope slides. All microscopy was performed on an LSM 780 system (Carl Zeiss) with a Plan-APOCHROMAT 63× 1.4NA oil objective (Carl Zeiss) and pinhole settings of 1 AU with the Zeiss ZEN 2010 software. Image processing and analysis was performed using ImageJ (http://rsb.info.nih.gov/ij/). […] Parkin recruitment events to the mitochondria were counted by hand throughout each z-stack and cell. […] JC-1 images were handled as summed intensity z-stack projections, as well as subjected to flatfield correction and subtraction of background before measuring the fluorescence levels normalized to the number of cell nuclei. The fluorescence intensity ratio between the red and green signal was calculated and compared to DMSO as a ratio of 1. Data were evaluated using Excel and GraphPad Prism 6.

CC(=O)N[C@@H](C)C(=O)N[C@H](C(=O)N[C@@H](Cc1ccccc1)C(=O)N[C@@H](CC(C)C)C(=O)N[C@@H](C)C(=O)C(=O)NCCCCc1ccccc1)C(C)C [compound 5] (Ac-AVFL[X1]-{NH(4-phenylbutyl)})
Effect on cleavage and stabilization of overexpressed PINK1 [1]: dose-dependent stabilization of PINK1–66
Effect on cleavage and stabilization of overexpressed PINK1 ([1]; listed as Compound 5): inhibits the PARL-cleavage of overexpressed PINK1 in a dose-dependent manner
Effect on mitochondrial membrane potential (JC-1 aggregate to monomer ratio) [2]: does not depolarize; also recorded: does not significantly alter the membrane potential
